Measured values published in patent US20230363382A1, “COMBINATIONS OF TRIAZINONE HERBICIDES WITH SAFENERS” (priority 2020, published 2023).
Where two headings read alike, the source gives them in different places.

Columns and labels:
Conditions in all cases: Metribuzin 840 g ai/ha alone, soil spray
Ipomoea hederacea = experiment: % weed control in Soybean crop; assay type: in vivo
Experimental: (§1) Experiments were carried out to evaluate the phytotoxicity, effect on plant height and effect on number of plants standing after treatments with combinations of one or more triazinone herbicides with one or more safeners.
(§2) Application method was spray and applications were made to soil.

Soybean crop [1] = experiment: effect on plant height of Soybean crop; assay type: in vivo
Experimental: as §1, §2

Soybean plants = experiment: effect on number of standing Soybean plants; assay type: in vivo
Experimental: as §1, §2

Soybean crop [2] = test system: Soybean crop
Experimental: as §1, §2

With `CSc1nnc(C(C)(C)C)c(=O)n1N` [Metribuzin, 4-amino-6-tert-butyl-4,5-dihydro-3-methylthio-1,2,4-triazin-5-one] the “% Weed Control 7 DAA” value (Ipomoea hederacea; Table 1 treatment set) was 60.0%, the “% Weed Control 7 DAA” value (Ipomoea hederacea; Table 2 treatment set) was 72.5% and the “% Weed Control 14 DAA” value (Ipomoea hederacea; Table 1 treatment set) was 92.5%. The “% Weed Control 14 DAA” value (Ipomoea hederacea; Table 2 treatment set) was 96.3%, the “% Weed Control 21 DAA” value (Ipomoea hederacea; Table 1 treatment set) was 98.8% and the “% Weed Control 21 DAA” value (Ipomoea hederacea; Table 2 treatment set) was 96.8%. The “% Weed Control 28 DAA” value (Ipomoea hederacea; Table 1 treatment set) was 95.0%, the “% Weed Control 28 DAA” value (Ipomoea hederacea; Table 2 treatment set) was 98.8% and the “% Weed Control 35 DAA” value (Ipomoea hederacea; Table 1 treatment set) was 96.3%. The “% Weed Control 35 DAA” value (Ipomoea hederacea; Table 2 treatment set) was 98.8%, the “Plant height 28 DAA” value (Soybean crop [1]; Table 1 treatment set) was 5.80 and the “Plant height 28 DAA” value (Soybean crop [1]; Table 2 treatment set) was 7.05. The “Number of plants standing 28 DAA” value (Soybean plants; Table 1 treatment set) was 3.0, the “Number of plants standing 28 DAA” value (Soybean plants; Table 2 treatment set) was 3.8 and the “% Phytotoxicity 7 DAA” value (Soybean crop [2]; Table 1 treatment set) was 6.3%. The “% Phytotoxicity 7 DAA” value (Soybean crop [2]; Table 2 treatment set) was 7.5%, the “% Phytotoxicity 21 DAA” value (Soybean crop [2]; Table 1 treatment set) was 65.0% and the “% Phytotoxicity 21 DAA” value (Soybean crop [2]; Table 2 treatment set) was 62.5%. For the same molecule, the “% Phytotoxicity 35 DAA” value (Soybean crop [2]; 35 DAA, Table 1 treatment set) was 81.3%.
